Experiments:
lipoamide = compound: NC(=O)CCCCC1CCSS1 [lipoamide]; experiment: thermal stability z-score vs DMSO; higher = more thermally stabilized by treatment; settings: HeLa, lipoamide concentration 100 µM
Method: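 Cellular thermal proteome profiling in HeLa cells. Cells were treated with 100 µM lipoamide for 1 h, with or without 1 mM arsenate for a further 1 h, then heated to ten temperatures (37-66.3 °C), and soluble protein was quantified by TMT mass spectrometry relative to 0.1% DMSO controls. The thermal stability score (sum of log2 fold changes minus the abundance score) was transformed to a z-score; mean of n = 3 experiments.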

potassium arsenate = compound: O=[As]([O-])(O)O.[K+] [potassium arsenate]; experiment: as above; settings: HeLa; arsenate concentration 1 mM
Method: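 Cellular thermal proteome profiling in HeLa cells treated with 1 mM arsenate for 1 h (DMSO pretreatment), heated to ten temperatures (37-66.3 °C). Soluble protein was quantified by TMT mass spectrometry relative to DMSO controls; the thermal stability score was transformed to a z-score; mean of n = 3 experiments.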

[1] = arsenate co-treatment: 1 mM arsenate 1 h
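Also: each temperature applied for 3 min, abundance score taken as mean log2 fold change at the two lowest temperatures, z-score obtained by mean subtraction and division by SD.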

UniProt Q9H6R6, sequence (Q9H6R6 whole entry): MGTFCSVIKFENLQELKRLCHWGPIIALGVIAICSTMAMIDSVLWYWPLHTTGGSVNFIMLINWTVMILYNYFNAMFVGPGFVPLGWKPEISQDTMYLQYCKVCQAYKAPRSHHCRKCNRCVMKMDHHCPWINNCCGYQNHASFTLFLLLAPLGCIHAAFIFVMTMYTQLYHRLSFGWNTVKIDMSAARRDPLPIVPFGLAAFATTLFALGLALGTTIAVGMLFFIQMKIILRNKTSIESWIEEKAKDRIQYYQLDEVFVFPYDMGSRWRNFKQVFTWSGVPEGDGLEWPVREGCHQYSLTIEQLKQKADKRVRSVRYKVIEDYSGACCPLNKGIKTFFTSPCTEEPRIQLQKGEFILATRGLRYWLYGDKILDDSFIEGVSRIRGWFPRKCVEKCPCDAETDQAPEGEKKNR
UniProt Q8IUH4, sequence (Q8IUH4 whole entry): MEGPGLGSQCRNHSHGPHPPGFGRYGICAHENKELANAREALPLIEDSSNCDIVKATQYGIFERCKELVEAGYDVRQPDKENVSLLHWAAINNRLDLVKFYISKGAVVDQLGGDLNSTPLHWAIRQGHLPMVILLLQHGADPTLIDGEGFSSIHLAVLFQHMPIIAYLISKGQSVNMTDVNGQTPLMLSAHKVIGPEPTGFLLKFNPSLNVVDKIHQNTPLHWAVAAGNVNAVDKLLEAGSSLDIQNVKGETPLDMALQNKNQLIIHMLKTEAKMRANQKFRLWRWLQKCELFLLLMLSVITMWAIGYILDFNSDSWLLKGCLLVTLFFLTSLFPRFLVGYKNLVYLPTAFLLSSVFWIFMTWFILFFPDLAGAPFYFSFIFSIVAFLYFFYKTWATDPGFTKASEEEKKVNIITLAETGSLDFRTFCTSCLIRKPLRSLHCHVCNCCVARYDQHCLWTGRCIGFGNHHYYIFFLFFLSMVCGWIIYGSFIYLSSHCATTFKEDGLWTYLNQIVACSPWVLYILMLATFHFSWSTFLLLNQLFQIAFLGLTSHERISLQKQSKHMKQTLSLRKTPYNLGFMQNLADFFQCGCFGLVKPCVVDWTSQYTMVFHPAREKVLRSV
UniProt Q9H0D6, sequence (Q9H0D6 whole entry): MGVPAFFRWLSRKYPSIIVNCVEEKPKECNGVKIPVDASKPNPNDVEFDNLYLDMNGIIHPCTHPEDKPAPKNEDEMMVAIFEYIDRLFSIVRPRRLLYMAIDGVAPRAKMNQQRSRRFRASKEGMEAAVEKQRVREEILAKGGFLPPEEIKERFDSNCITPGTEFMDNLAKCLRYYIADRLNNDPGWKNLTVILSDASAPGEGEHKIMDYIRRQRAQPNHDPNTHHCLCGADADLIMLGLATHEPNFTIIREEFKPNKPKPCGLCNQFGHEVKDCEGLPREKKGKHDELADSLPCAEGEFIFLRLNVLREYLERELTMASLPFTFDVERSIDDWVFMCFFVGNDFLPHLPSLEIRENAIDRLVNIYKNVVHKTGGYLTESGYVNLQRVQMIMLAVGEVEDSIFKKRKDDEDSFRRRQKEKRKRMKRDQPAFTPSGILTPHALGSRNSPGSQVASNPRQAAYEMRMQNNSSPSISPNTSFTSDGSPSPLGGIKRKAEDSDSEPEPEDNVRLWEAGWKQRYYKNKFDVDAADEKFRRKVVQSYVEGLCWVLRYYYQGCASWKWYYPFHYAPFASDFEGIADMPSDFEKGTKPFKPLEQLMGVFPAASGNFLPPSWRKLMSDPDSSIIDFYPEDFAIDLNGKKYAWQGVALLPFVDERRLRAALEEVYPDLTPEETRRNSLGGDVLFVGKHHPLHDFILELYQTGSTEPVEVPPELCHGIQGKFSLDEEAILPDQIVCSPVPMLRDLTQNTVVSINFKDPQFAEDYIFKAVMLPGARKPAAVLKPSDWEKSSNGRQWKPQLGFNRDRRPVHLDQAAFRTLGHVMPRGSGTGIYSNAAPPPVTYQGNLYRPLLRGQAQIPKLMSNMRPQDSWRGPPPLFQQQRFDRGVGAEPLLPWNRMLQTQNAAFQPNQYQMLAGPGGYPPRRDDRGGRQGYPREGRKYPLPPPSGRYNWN
UniProt Q9BYJ9, sequence (Q9BYJ9 whole entry): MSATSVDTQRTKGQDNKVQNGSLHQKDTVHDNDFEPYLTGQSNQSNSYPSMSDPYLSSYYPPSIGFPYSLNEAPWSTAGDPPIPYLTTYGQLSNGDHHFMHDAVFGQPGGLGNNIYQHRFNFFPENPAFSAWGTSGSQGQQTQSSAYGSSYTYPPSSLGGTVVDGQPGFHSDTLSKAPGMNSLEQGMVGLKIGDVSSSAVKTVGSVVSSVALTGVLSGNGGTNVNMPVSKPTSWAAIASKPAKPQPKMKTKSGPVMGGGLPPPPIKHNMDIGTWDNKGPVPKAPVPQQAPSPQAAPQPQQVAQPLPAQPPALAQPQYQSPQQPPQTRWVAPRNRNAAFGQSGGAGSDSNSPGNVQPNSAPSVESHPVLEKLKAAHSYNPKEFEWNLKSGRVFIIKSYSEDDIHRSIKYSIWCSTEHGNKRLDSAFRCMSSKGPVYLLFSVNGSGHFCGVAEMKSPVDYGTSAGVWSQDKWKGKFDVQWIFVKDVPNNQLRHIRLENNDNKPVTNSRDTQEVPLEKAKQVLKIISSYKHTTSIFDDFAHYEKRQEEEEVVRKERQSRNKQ
UniProt Q9H6S0, sequence (Q9H6S0 whole entry): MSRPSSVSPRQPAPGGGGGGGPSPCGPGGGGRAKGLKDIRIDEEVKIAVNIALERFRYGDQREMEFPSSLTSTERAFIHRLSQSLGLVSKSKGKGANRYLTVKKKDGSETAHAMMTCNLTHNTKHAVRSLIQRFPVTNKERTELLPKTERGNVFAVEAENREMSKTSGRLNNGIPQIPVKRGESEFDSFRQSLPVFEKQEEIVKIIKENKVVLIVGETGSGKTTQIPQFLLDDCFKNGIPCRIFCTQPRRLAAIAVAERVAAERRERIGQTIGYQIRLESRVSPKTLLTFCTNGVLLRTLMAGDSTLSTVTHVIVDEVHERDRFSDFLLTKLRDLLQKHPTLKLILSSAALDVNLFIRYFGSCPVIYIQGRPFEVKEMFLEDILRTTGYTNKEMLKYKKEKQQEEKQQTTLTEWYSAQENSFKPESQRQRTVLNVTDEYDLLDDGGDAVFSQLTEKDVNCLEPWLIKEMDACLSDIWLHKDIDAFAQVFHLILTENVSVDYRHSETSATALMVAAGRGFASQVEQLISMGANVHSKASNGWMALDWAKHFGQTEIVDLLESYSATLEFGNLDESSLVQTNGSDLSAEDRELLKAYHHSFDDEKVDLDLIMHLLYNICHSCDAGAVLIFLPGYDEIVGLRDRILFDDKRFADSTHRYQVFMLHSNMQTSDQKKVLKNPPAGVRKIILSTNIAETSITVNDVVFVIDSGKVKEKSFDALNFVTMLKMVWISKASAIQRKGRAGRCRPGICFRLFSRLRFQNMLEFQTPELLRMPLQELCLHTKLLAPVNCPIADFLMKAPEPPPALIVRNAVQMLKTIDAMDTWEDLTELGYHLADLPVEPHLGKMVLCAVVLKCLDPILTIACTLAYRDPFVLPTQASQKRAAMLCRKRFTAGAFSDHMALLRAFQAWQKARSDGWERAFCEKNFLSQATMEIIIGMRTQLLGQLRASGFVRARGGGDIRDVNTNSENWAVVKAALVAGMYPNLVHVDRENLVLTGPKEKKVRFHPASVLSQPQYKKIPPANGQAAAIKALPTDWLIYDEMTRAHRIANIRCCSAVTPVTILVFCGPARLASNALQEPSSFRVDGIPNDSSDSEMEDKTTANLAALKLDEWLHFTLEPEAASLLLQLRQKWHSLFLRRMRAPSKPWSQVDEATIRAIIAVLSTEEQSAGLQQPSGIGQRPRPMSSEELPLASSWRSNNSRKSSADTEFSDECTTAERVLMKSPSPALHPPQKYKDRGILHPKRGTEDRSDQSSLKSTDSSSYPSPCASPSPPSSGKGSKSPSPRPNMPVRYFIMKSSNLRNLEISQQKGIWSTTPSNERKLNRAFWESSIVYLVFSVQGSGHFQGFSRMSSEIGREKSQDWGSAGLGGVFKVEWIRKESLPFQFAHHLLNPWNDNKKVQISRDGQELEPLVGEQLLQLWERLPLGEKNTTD
UniProt Q9NYL2, sequence (Q9NYL2 whole entry, looked up): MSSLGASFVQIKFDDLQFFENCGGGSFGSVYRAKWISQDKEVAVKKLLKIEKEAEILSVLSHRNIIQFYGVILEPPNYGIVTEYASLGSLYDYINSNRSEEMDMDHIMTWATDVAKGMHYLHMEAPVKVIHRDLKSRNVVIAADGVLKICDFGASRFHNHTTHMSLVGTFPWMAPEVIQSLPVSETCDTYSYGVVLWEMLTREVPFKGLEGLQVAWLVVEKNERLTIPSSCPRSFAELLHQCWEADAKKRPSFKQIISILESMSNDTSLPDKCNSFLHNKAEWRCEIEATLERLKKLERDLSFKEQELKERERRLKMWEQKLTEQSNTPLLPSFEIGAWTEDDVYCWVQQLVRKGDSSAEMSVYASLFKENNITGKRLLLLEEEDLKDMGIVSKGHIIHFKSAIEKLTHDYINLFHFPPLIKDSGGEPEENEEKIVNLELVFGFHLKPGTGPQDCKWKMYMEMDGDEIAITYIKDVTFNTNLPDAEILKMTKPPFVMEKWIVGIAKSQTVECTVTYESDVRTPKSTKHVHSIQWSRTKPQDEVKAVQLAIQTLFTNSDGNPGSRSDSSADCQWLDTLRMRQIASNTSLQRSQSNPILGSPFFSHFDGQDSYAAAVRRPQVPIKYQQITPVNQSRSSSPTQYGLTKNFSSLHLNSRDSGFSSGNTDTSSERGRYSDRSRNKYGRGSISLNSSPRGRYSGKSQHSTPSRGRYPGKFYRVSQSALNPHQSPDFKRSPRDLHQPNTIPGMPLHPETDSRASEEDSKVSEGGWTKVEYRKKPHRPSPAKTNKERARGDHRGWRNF
UniProt Q8TBF4, sequence (Q8TBF4 whole entry): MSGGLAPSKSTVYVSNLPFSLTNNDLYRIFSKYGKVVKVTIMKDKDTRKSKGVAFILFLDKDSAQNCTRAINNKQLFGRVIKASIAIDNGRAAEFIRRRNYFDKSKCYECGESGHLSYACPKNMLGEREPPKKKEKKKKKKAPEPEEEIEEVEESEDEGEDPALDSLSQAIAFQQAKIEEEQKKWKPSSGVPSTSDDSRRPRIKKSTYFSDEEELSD

| Target | thermal stability z-score (lipoamide; [1]) | thermal stability z-score (lipoamide; arsenate co-treatment: none) | thermal stability z-score (potassium arsenate) |
| --- | --- | --- | --- |
| XRN1 (UniProt Q8IZH2) | -0.0709 | -0.0695 | -0.357 |
| XRN2 (UniProt Q9H0D6) | 0.575 | 0.495 | -0.818 |
| XXYLT1 (UniProt Q8NBI6) | -0.751 | -2.13 | 0.948 |
| XYLB (UniProt O75191) | -0.0179 | -0.17 | 0.149 |
| YAP1 (UniProt P46937) | 0.509 | 0.727 | 0.0991 |
| YARS2 (UniProt Q9Y2Z4) | -0.741 | -0.156 | 0.423 |
| YARS (UniProt P54577) | 0.161 | 0.213 | 2.64 |
| YBEY (UniProt P58557) | -0.077 | 0.169 | 0.131 |
| YBX1 (UniProt P67809) | -0.0518 | -0.23 | -0.894 |
| YBX3 (UniProt P16989) | 0.153 | -0.0445 | -0.672 |
| YDJC (UniProt A8MPS7) | -0.851 | -1.66 | -1.04 |
| YEATS4 (UniProt O95619) | 0.802 | 0.865 | -0.33 |
| YES1 (UniProt P07947) | -0.641 | -0.393 | -2.98 |
| YIF1B (UniProt Q5BJH7) | 0.452 | -0.197 | 0.898 |
| YIPF3 (UniProt Q9GZM5) | -0.157 | 0.0301 | -0.0851 |
| YIPF4 (UniProt Q9BSR8) | 0.0431 | -0.44 | -0.689 |
| YIPF5 (UniProt Q969M3) | -0.255 | -0.344 | -0.18 |
| YKT6 (UniProt O15498) | -0.198 | 0.453 | -0.597 |
| YME1L1 (UniProt Q96TA2) | -0.813 | -0.425 | -0.298 |
| YOD1 (UniProt Q5VVQ6) | -0.00898 | -0.121 | 0.0186 |
| YPEL5 (UniProt P62699) | -0.116 | -0.259 | -0.117 |
| YRDC (UniProt Q86U90) | 0.45 | 0.0491 | 0.341 |
| YTHDC2 (UniProt Q9H6S0) | -0.0971 | -0.734 | -0.0852 |
| YTHDF1 (UniProt Q9BYJ9) | 0.00152 | -0.0393 | -0.193 |

| Target | thermal stability z-score (lipoamide; [1]) | thermal stability z-score (lipoamide; arsenate co-treatment: none) | thermal stability z-score (potassium arsenate) |
| --- | --- | --- | --- |
| YTHDF2 (UniProt Q9Y5A9) | -0.0393 | -0.108 | 0.0979 |
| YTHDF3 (UniProt Q7Z739) | -0.486 | 0.111 | 0.174 |
| YWHAB (UniProt P31946) | 0.364 | 0.584 | 0.281 |
| YWHAE (UniProt P62258) | 0.149 | 0.0341 | -0.368 |
| YWHAG (UniProt P61981) | 0.0458 | -0.0254 | -0.403 |
| YWHAH (UniProt Q04917) | 0.0489 | 0.303 | 0.138 |
| YWHAQ (UniProt P27348) | 0.857 | 0.727 | 0.199 |
| YWHAZ (UniProt P63104) | 0.146 | -0.0541 | -0.195 |
| YY1 (UniProt P25490) | 0.0187 | -0.101 | 0.338 |
| ZADH2 (UniProt Q8N4Q0) | 0.265 | 0.233 | 0.319 |
| ZAK (UniProt Q9NYL2) | -0.237 | -0.237 | -0.105 |
| ZBED1 (UniProt O96006) | -0.243 | -0.292 | 0.00958 |
| ZBTB7A (UniProt O95365) | 0.428 | -0.495 | -1.13 |
| ZBTB8OS (UniProt Q8IWT0) | -0.245 | 0.591 | -1.01 |
| ZBTB10 (UniProt Q96DT7) | 0.00974 | -0.093 | -0.307 |
| ZBTB33 (UniProt Q86T24) | -0.0938 | -0.0683 | -0.107 |
| ZC2HC1A (UniProt Q96GY0) | 0.178 | -0.306 | -1.15 |
| ZC3H4 (UniProt Q9UPT8) | 0.112 | -0.278 | -1.7 |
| ZC3H7A (UniProt Q8IWR0) | -0.124 | -0.0131 | -0.613 |
| ZC3H7B (UniProt Q9UGR2) | -0.082 | -0.0985 | -0.647 |
| ZC3H8 (UniProt Q8N5P1) | -0.0194 | -0.277 | -0.576 |
| ZC3H11A (UniProt O75152) | 0.0837 | -0.0442 | -0.845 |
| ZC3H12A (UniProt Q5D1E8) | 0.0783 | -0.187 | -0.189 |
| ZC3H14 (UniProt Q6PJT7) | 0.686 | -0.0584 | -5.55 |

| Target | thermal stability z-score (lipoamide; [1]) | thermal stability z-score (lipoamide; arsenate co-treatment: none) | thermal stability z-score (potassium arsenate) |
| --- | --- | --- | --- |
| ZC3H15 (UniProt Q8WU90) | -0.032 | -0.0996 | 0.0266 |
| ZC3H18 (UniProt Q86VM9) | 1.11 | 0.987 | -1.11 |
| ZC3HAV1 (UniProt Q7Z2W4) | -0.627 | 0.183 | 0.156 |
| ZC3HAV1L (UniProt Q96H79) | 0.323 | -0.218 | 0.0902 |
| ZC3HC1 (UniProt Q86WB0) | -0.377 | 0.164 | -0.364 |
| ZCCHC6 (UniProt Q5VYS8) | -0.043 | -0.0119 | -0.0705 |
| ZCCHC8 (UniProt Q6NZY4) | 0.464 | 0.344 | -0.318 |
| ZCCHC11 (UniProt Q5TAX3) | -0.38 | -0.287 | -0.424 |
| ZCRB1 (UniProt Q8TBF4) | 0.506 | 0.194 | 0.155 |
| ZDHHC5 (UniProt Q9C0B5) | -0.762 | 0.0706 | -0.438 |
| ZDHHC6 (UniProt Q9H6R6) | 0.211 | -0.0578 | -0.412 |
| ZDHHC13 (UniProt Q8IUH4) | 0.0485 | -0.0918 | 0.144 |
| ZDHHC17 (UniProt Q8IUH5) | 0.571 | 1.07 | 0.191 |
| ZDHHC20 (UniProt Q5W0Z9) | 0.527 | 0.247 | 0.242 |
| ZFAND1 (UniProt Q8TCF1) | 0.233 | 0.29 | -0.247 |
| ZFAND3 (UniProt Q9H8U3) | 0.918 | 0.518 | -1.25 |
| ZFAND5 (UniProt O76080) | 1.13 | 0.84 | 0.118 |
| ZFAND6 (UniProt Q6FIF0) | 0.56 | 0.219 | -0.0508 |
| ZFC3H1 (UniProt O60293) | 0.164 | -0.0359 | -0.434 |
| ZFP36L2 (UniProt P47974) | -0.198 | 0.12 | -0.0646 |
| ZFP91 (UniProt Q96JP5) | -0.301 | 0.00195 | -0.352 |
| ZFPL1 (UniProt O95159) | -0.552 | -1.06 | -1.02 |
| ZFR (UniProt Q96KR1) | 0.561 | 0.0288 | -0.37 |
